The target of test [1] is TTX-R sodium currents in GI tract afferent neurons (Rattus norvegicus, UniProt Q62968). As to the kind of experiment: Whole cell patch-clamp, tonic block of TTX-R sodium currents, cumulative concentration-response. Format: cell-based. To be noted: bath application; four GI tract afferent neurons. Here is the method: (§1) Labeling of GI tract afferent neurons: Adult female Sprague-Dawley rats (150–300 g) were deeply anesthetized with pentobarbital anesthesia and placed on isoflurane maintenance anesthesia. A ventral midline incision was made through the abdominal skin and musculature, exposing the GI tract. Five injections of the fluorescent dyes Di-I (5 µl each of 25 mg/ml Di-I in DMSO) or Fast Blue (4% w/v) were made into the wall of the colon to label primary afferent fibers innervating the GI tract. The areas were rinsed with sterile saline to eliminate nonspecific spread of dye, and the incision was closed. […] Labeled neurons were identified in vitro using fluorescence optics. […]
Sequence of TTX-R sodium currents in GI tract afferent neurons (Q62968 whole entry, looked up): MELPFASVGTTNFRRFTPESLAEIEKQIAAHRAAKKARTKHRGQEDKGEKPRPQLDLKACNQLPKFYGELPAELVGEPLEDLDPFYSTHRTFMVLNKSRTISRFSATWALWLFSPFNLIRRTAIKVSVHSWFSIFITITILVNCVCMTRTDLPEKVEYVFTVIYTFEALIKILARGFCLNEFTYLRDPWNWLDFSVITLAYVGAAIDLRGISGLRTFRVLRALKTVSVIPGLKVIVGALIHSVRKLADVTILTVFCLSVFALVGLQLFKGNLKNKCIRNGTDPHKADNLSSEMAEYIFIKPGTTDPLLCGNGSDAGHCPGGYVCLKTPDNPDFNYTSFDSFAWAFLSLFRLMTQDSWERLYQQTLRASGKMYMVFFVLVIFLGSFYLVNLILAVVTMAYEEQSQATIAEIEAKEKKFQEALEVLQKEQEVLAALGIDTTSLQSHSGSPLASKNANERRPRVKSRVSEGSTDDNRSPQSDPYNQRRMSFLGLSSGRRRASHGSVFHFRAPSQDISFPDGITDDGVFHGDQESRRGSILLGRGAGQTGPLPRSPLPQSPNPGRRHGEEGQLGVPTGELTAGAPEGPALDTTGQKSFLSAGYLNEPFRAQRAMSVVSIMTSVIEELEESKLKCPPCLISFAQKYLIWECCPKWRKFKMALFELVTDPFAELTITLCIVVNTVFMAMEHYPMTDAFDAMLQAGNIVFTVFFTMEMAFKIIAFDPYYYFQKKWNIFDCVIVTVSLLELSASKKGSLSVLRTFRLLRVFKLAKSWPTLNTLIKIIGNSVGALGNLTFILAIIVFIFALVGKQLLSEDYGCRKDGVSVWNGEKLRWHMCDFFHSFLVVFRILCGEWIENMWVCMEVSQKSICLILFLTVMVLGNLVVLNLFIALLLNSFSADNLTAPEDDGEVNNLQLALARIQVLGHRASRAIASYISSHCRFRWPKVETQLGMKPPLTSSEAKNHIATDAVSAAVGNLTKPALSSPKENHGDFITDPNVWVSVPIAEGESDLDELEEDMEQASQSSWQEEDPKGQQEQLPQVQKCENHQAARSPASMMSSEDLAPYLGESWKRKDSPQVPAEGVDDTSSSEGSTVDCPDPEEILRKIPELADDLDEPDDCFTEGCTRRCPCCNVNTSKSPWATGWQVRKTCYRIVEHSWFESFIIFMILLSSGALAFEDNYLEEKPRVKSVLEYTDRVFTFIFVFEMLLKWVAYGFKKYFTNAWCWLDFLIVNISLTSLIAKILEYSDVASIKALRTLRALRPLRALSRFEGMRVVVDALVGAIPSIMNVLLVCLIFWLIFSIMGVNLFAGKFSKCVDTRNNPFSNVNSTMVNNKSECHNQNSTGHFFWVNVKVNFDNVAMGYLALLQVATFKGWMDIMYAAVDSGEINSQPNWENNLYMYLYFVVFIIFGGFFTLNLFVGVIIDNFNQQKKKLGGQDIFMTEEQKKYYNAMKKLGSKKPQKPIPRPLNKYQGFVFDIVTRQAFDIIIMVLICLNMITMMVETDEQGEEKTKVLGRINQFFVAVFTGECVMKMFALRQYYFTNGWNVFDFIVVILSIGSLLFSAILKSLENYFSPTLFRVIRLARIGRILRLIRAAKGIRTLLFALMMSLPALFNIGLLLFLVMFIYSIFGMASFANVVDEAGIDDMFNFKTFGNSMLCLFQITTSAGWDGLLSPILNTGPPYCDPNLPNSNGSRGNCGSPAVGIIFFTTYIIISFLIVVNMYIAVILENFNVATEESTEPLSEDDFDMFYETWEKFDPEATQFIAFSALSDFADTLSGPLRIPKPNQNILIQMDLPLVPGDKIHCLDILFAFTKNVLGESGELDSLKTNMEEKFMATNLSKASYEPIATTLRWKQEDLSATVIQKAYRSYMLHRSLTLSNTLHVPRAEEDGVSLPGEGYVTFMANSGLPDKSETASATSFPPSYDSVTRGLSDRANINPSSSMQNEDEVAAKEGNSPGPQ
(§2) In most experiments, neurons were incubated in culture medium containing the FITC-labeled lectin BSI-B4 (IB4, […]) at 37° C. for 5 min before recording. The coverslip was washed with extracellular recording solution for 1 min before being placed in a recording chamber mounted on the stage of an inverted microscope equipped with fluorescence optics. […]
(§3) Sodium currents were recorded from DRG neurons using standard electrophysiologic protocols. […] Currents were recorded using a patch-clamp amplifier and digitized at 3–10 kHz for acquisition. Neuronal input resistance and membrane capacitance were determined from the amplitude and kinetics of the current response to a voltage pulse from a holding potential of −50 mV. […]

The test system of test [2] is sodium currents in colon DRG neurons. In words: Whole cell patch-clamp, activity-dependent (use-dependent) modulation of sodium currents, slow vs fast stimulation. Format: cell-based, rat. To be noted: 100 µM lamotrigine; slow (0.2 Hz) vs fast (17 Hz) step depolarizations from −50 to 0 mV; three neurons; P<0.05 vs slow stimulation. As to the method:
as §1, §2, §3
(In general: The patch-clamp technique gives a direct electrical read-out from membranes.)

For `Nc1c(Br)cc(Br)cc1CNC1CCC(O)CC1` (centres unmarked) [Ambroxol], in test [1], the “block of TTX-R sodium currents (in words)” value is given as “concentration-dependent reversible block”. Take `Nc1nnc(-c2cccc(Cl)c2Cl)c(N)n1` [lamotrigine, 6-(2,3-Dichlorophenyl)-1,2,4-triazine-3,5-diamine]: in test [2], the “mean peak sodium current amplitude (mean % control amplitude)” value is on record as “decreased to a greater extent under fast stimulation conditions”.

Source of the values: US7041704B2, “Methods of treating gastrointestinal tract disorders using sodium channel modulators” (Dynogen Pharmaceuticals, Inc., priority 2003, dated 2006).
